Test results taken from patent US10046007B2, “Compositions and methods for treatment of short telomere disorders” (PRESCIENT PHARMA LLC, priority 2015, dated 2018).
Entries after “also recorded” stand apart in the source; their conditions may differ. Read-outs that look alike come from different tables or passages of the source.

Test system: bleomycin-induced pulmonary fibrosis
Procedure: Bleomycin solution: bleomycin (commercially available from SigmaAldrich) in PBS was used for intra-tracheal bleomycin administration. (0.04 U of bleomycin in 50 μl in PBS/mouse/per inhalation).
13 female mice (commercially available from Charles River Laboratories, BALB/C) were randomly divided into 4 groups, as follows:
Each mouse was anesthetized with 87.5 mg ketamine/kg and 12.5 mg xyline/kg cocktail 0.1 ml/20 g body weight IM. For both lithium and bleomycin intra-tracheal administration, tracheal intubation was performed using with a 23 gauge IV catheter through the mouth, followed by insertion of PE-10 tubing into the trachea. After placement of the PE-10 tubing inside the trachea, the 23 gauge iv catheter was quickly removed. Lithium or bleomycin was instilled through the PE-10 tubing. The instillation volume was 50 μl each administration for each mouse. The procedure time was around 15 minutes per mouse.
For Group 1 (n=1), no treatment was administered and the mouse was sacrificed as control.
The mice was sacrificed at 21 days after first lithium administration. The mice were sacrificed using pentobarbital 200 mg/kg ip. After the mice were sacrificed, the lungs were quickly harvested and perfused with 10% formalin buffer through the trachea. The lung tissue was then fixed in 10% formalin buffer for 3 days.
For Group 3 (n=6), the mice were pre-treated with intra-tracheal lithium instillation (0.15 mM in 50 μl saline) every other day for 3 administrations. 7 days after the final lithium pre-treatment, intra-tracheal bleomycin was instilled (0.04 U in 50 μl saline). The mice in this group were then sacrificed 14 days after bleomycin administration. The mice were sacrificed using pentobarbital 200 mg/kg ip. After the mice were sacrificed, the lungs were quickly harvested and perfused with 10% formalin buffer through the trachea. The lung tissue was then fixed in 10% formalin buffer for 3 days.
For Group 4 (n=5), only intra-tracheal bleomycin was instilled (0.04 U in 50 μl saline). The mice in this group were then sacrificed 14 days after bleomycin administration. The mice were sacrificed using pentobarbital 200 mg/kg ip. After the mice were sacrificed, the lungs were quickly harvested and perfused with 10% formalin buffer through the trachea. The lung tissue was then fixed in 10% formalin buffer for 3 days.
Following the 3 day period, macroscopical examination of the lung tissue was performed by dissection. The lung tissue were cut into 1-2 mm slices and visually inspected for areas of grey-white discoloration. […] The lung slices were then embedded in paraffin and sectioned into 5-μm-thick sections. Hematoxylin and eosin (H&E) and trichrome staining (abcam; ab150686) were performed for tissue samples from each group. The stained slides were then examined under light microscope (Olympus BX51) and photographed (Olympus DP-73 digital camera).
An Ashcroft score was then calculated for each of the group (T Ashcroft at al., Simple method of estimating severity of pulmonary fibrosis on a numerical scale. J Clin Pathol 1988; 41:467-470). The Ashcroft score provides a simple method of estimating severity of pulmonary fibrosis on a numerical scale.

Molecule	signs of lung tissue damage, macroscopic and microscopic (H&E, trichrome) (Group 2: lithium inhalation only)	Ashcroft score (Group 2: lithium inhalation only, 0.15 mM lithium carbonate 50 μl intratracheal every other day for 3 administrations, sacrificed at 21 days)	Ashcroft score (Group 3: intra-tracheal lithium 0.15 mM in 50 μl every other day for 3 administrations, bleomycin 0.04 U 7 days after final lithium, sacrificed 14 days after bleomycin)	signs of lung tissue damage, macroscopic and microscopic (H&E, trichrome) (Group 3: lithium pre-treatment followed by bleomycin)	pulmonary fibrosis development induced by bleomycin (lithium pre-treatment by inhalation, mice)	macroscopic examination of lung sections (grey-white discoloration) (Group 4: bleomycin alone)	microscopic examination of discoloured lung areas (Group 4: bleomycin alone)	Ashcroft score (Group 4: intra-tracheal bleomycin alone 0.04 U in 50 μl, sacrificed 14 days after bleomycin)
O=C([O-])[O-].[Li+].[Li+] [lithium carbonate]	did not show any macroscopically or microscopically sign of lung tissue damage	0	0	did not reveal any signs macroscopically or microscopically of lung tissue damage	completely abolishes	–	–	–
bleomycin	–	–	–	–	–	only areas of such discoloration were found in the lung tissue of Group 4 mice; also recorded: multiple areas of grey-white discoloration mostly in peri-pleural areas	profound fibrotic changes	4.03
